Measured values: patent publication US8507219B2, “Method of treating inflammation with statins” (MUSC Foundation for Research Development, priority 1997, dated 2013)
Values joined by “and” are separate entries in the source; they are usually repeats but may differ in a detail not shown here. Identical values can stand only once. Like-named read-outs stand apart in the source and are kept apart here.

Columns and labels:
[1] = system: NO production in rat primary microglia; assay: LPS-induced NO production (nitrite) in rat primary microglia; format: cell-based
[2] = system: control human skin fibroblasts; assay: β-oxidation of lignoceric acid in control human skin fibroblasts; format: cell-based
NF-kβ = format: cell-based, rat
Description: Preparation of Nuclear Extracts and Electrophoretic Mobility shift assay Nuclear extracts from stimulated or unstimulated astrocytes (1×10^7 cells) were prepared using the method of Dignam et al. (1983) with slight modification. Cells were harvested, washed twice with ice-cold phosphate-buffered saline and lysed in 400 μl of buffer A (10 mM HEPES, pH 7.9, 10 mM KCl, 2 mM MgCl2, 0.5 mM DTT, 1 mM PMSF, 5 μg/ml aprotinin, 5 μg/ml pepstatin A, and 5 μg/ml leupeptin (Sigma, St. Louis, Mo.) containing 0.1% Nondet P-40 for 15 min on ice, vortexed vigorously for 15 s, and centrifuged at 14,000 rpm for 30 s. The pelleted nuclei were resuspended in 40 μl of buffer B (20 mM HEPES, pH 7.9, 25% (v/v) glycerol, 0.42 M NaCl, 1.5 mM MgCl2, 0.2 mM EDTA, 0.5 mM DTT, 1 mM PMSF, 5 μg/ml aprotinin, 5 μg/ml pepstatin A, and 5 μg/ml leupeptin). After 30 min on ice, lysates were centrifuged at 14,000 rpm for 10 min. Supernatants containing the nuclear proteins were diluted with 20 μl of modified buffer C (20 mM HEPES, pH 7.9, 20% (v/v) glycerol, 0.05 M KCl, 0.2 mM EDTA, 0.5 mM DTT, and 0.5 mM PMSF) and stored at −70° C. until use. Nuclear extracts were used for the electrophoretic mobility shift assay using the NF-kβ DNA binding protein detection system kit (GIBCO/BRL), according to the manufacturer's protocol.
Preparation of nuclear extracts and electrophoretic mobility shift assay Nuclear extracts from stimulated or unstimulated astrocytes (1×10^7 cells) were prepared as described (Dignam et al., 1983) with slight modification. Cells were harvested, washed twice with ice-cold phosphate-buffered saline and lysed in 400 μl of buffer A (10 mM HEPES, pH 7.9, 10 mM KCl, 2 mM MgCl2, 0.5 mM DTT, 1 mM PMSF, 5 μg/ml aprotinin, 5 μg/ml pepstatin A, and 5 μg/ml leupeptin) containing 0.1% Nonidet P40 for 15 min on ice, vortexed vigorously for 15 s, and centrifuged at 14,000 rpm for 30 s. […]

[3] = Plasma total cholesterol in X-ALD patients on lovastatin; format: in vivo, human; settings: individual patients, at six months (Patients 1, 2, 3, 6, 7), four months (Patient 4), three months (Patient 5)
[4] = human, in vivo
TNF-α = format: in vivo, Lewis rats
Description: One group of animals induced for EAE was left untreated while another group of animals was not induced for EAE and used as the control group.
Immunohistochemistry Brains were fixed in 10% buffered formalin (Stephens Scientific, Riverdale, N.J.). The tissues were embedded in paraffin and sectioned at 4 μm. Sections were then stained for various cytokines and cell markers as described below. For single-label immunohistochemistry, sections were incubated with either anti-iNOS antibody (1:100, rabbit polyclonal, Calbiochem, LaJolla, Calif.) or anti-TNF-α antibody (1:100, rabbit polyclonal, Genzyme, Cambridge, Mass.) or anti-IFN-γ antibody (1:200, rabbit polyclonal, Biosource International, Camarillo, Calif.) essentially as described for other antibodies (Hooper et al., 1997). The tissue sections were further incubated with FITC conjugated anti-rabbit IgG (1:100, Sigma, St. Louis, Mo.), mounted with mounting media (EMS) and analyzed by immunofluorescence microscopy (Olympus) using Adobe photoshop software. For immunofluorescent double-labeling, sections were incubated first with anti-iNOS (1:100) followed by macrophage marker ED1 (1:100, mouse monoclonal, Biosource International, Camarillo, Calif.). Anti-iNOS was visualized using TRITC conjugated anti-rabbit IgG—(1:100, Sigma, St. Louis, Mo.) and ED1 using FITC conjugated anti-mouse IgG (1:100, Sigma, St. Louis, Mo.). […]

## CC[C@H](C)C(=O)O[C@H]1C[C@@H](C)C=C2C=C[C@H](C)[C@H](CC[C@@H]3C[C@@H](O)CC(=O)O3)[C@H]21 [Lovastatin]
[1]; Microglia, 10 μM lovastatin or 5 mM NaPA 8 h, then LPS 1.0 μg/ml, 24 h
  Production of NO: 5.9 ± 0.4 nmol/24 h/mg protein
[2]; 72 h, Lovastatin 5 μM, Mevastatin 5 μM, NaPA 5 mM, Control 570.2 ± 52.3
  Lignoceric acid β-oxidation: 945.7 ± 105.6 pmol/h/mg protein
NF-kβ; LPS 1.0 μg/ml, 1 h
  LPS-induced activation of NF-kβ: markedly inhibited for the LPS-induced activation of NF-kβ
[3]; after four months of treatment
  Plasma Total Cholesterol After Treatment: 167 mg/dL
[3]; after six months of treatment
  Plasma Total Cholesterol After Treatment: 158 mg/dL and 204 mg/dL and 230 mg/dL and 183 mg/dL and 96 mg/dL
[4]
  adverse events leading to withdrawal: persistent diarrhea and a marked elevation of serum creatine kinase levels

## CC(=O)N[C@@H](CS)C(=O)O [NAC, N-acetyl cysteine]
TNF-α; daily i.p. treatment from day 1
  expression of TNF-α in EAE brain: blocked the induction of TNF-α

## O=C([O-])Cc1ccccc1.[Na+] [NaPA, sodium salt of phenylacetic acid]
[1]
  Production of NO: 6.9 ± 0.9 nmol/24 h/mg protein
TNF-α; rat, in vivo, ip
  expression of TNF-α in EAE brain: blocked the induction of TNF-α
[2]
  Lignoceric acid β-oxidation: 826.2 ± 87.2 pmol/h/mg protein
NF-kβ
  LPS-induced activation of NF-kβ: markedly inhibited for the LPS-induced activation of NF-kβ
